In ChEMBL document CHEMBL1201862, “PubChem BioAssay data set” (2004):
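These data come from cells grown in 96-well plates and exposed to compound for 48 hours at five concentrations. GI50 is the concentration that inhibits growth by half.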 The source made the active and inactive calls. Rule as the data show it: active = GI50 up to about 1.1 µM and inactive = higher.

Tests used:
Assay in all cases: NCI anticancer screen, dose series, 48 h
EKVX = tested on: EKVX
MCF7 = tested on: MCF7
MDA-N = tested on: MDA-N
U-251 = tested on: U-251
IGROV-1 = tested on: IGROV-1
M14 = tested on: M14
NCI-H522 = tested on: NCI-H522
HCC 2998 = tested on: HCC 2998
KM12 = tested on: KM12
OVCAR-3 = tested on: OVCAR-3
DU-145 = tested on: DU-145
SW-620 = tested on: SW-620
OVCAR-5 = tested on: OVCAR-5
T47D = tested on: T47D
SN12C = tested on: SN12C
SK-MEL-28 = tested on: SK-MEL-28
TK-10 = tested on: TK-10
SNB-75 = tested on: SNB-75
SK-OV-3 = tested on: SK-OV-3
RXF 393 = tested on: RXF 393

Measured: GI50

Cc1cc(S(=O)(=O)Nc2nnc3ccccn23)c(S)cc1Cl
inactive: EKVX > 100 µM | MCF7 > 100 µM | MDA-N > 100 µM | U-251 47.9 µM | IGROV-1 > 100 µM | M14 > 100 µM | NCI-H522 > 100 µM | HCC 2998 > 100 µM | KM12 38.1 µM | OVCAR-3 > 100 µM | DU-145 > 100 µM | SW-620 > 100 µM | OVCAR-5 > 100 µM | T47D > 100 µM | SN12C > 100 µM | SK-MEL-28 > 100 µM | TK-10 > 100 µM

O=C1CSC(c2ccc(Cl)cc2)N1c1ccc(Oc2ccc(Cl)cc2)c(Cl)c1 (stereo not given)
inactive: EKVX 13.7 µM | MCF7 21.9 µM | MDA-N 14.5 µM | U-251 16.6 µM | IGROV-1 14.8 µM | SNB-75 12.3 µM | M14 16.7 µM | NCI-H522 7.13 µM | SK-OV-3 17.6 µM | HCC 2998 17.2 µM | KM12 15.7 µM | OVCAR-3 15 µM | DU-145 13.1 µM | SW-620 18.3 µM | OVCAR-5 14.2 µM | T47D 10.7 µM | SN12C 20 µM | SK-MEL-28 17.7 µM | TK-10 18.7 µM

N#Cc1c2ccc([N+](=O)[O-])cc2c(=O)n2c1sc1ccccc12
inactive: MDA-N 80.2 µM | U-251 14.6 µM | SNB-75 42.2 µM | HCC 2998 8.05 µM | KM12 31.6 µM | DU-145 35.5 µM | SW-620 18.9 µM | T47D 14.8 µM | SN12C 24.3 µM | SK-MEL-28 17.6 µM | TK-10 16 µM

O=C(Sc1c(-c2ccccc2)c(=O)n(-c2ccccc2)c(=S)n1-c1ccccc1)c1ccccc1
inactive: EKVX > 100 µM | MCF7 51.6 µM | MDA-N 84.5 µM | U-251 79.1 µM | IGROV-1 > 100 µM | SNB-75 12.3 µM | M14 61.1 µM | NCI-H522 36.1 µM | SK-OV-3 > 100 µM | KM12 > 100 µM | OVCAR-3 > 100 µM | DU-145 > 100 µM | SW-620 28.6 µM | OVCAR-5 > 100 µM | T47D 71.1 µM | SN12C > 100 µM | SK-MEL-28 > 100 µM | TK-10 > 100 µM

C=CCOCn1cc(F)c(=O)[nH]c1=O
inactive: EKVX > 100 µM | MCF7 > 100 µM | MDA-N > 100 µM | IGROV-1 > 100 µM | SNB-75 31.6 µM | M14 > 100 µM | NCI-H522 > 100 µM | SK-OV-3 > 100 µM | HCC 2998 > 100 µM | KM12 > 100 µM | DU-145 > 100 µM | SW-620 > 100 µM | T47D > 100 µM | SN12C > 100 µM | SK-MEL-28 > 100 µM | TK-10 > 100 µM

c1cc(CSP234N5CCN2CCN3CCN4CC5)ccc1CSP123N4CCN1CCN2CCN3CC4
inactive: EKVX > 100 µM | MCF7 > 100 µM | MDA-N > 100 µM | U-251 68.5 µM | IGROV-1 > 100 µM | SNB-75 > 100 µM | M14 > 100 µM | NCI-H522 52 µM | HCC 2998 > 100 µM | KM12 > 100 µM | OVCAR-3 76.4 µM | DU-145 > 100 µM | SW-620 > 100 µM | OVCAR-5 > 100 µM | T47D > 100 µM | SN12C > 100 µM | SK-MEL-28 > 100 µM | TK-10 > 100 µM

CCOC(=O)C1(C/C=C\CBr)CCCCCCC1=O (stereo not given)
inactive: EKVX > 100 µM | MCF7 > 100 µM | MDA-N > 100 µM | U-251 > 100 µM | IGROV-1 > 100 µM | RXF 393 > 100 µM | SNB-75 > 100 µM | M14 > 100 µM | NCI-H522 > 100 µM | SK-OV-3 > 100 µM | KM12 > 100 µM | DU-145 > 100 µM | SW-620 > 100 µM | OVCAR-5 > 100 µM | T47D > 100 µM | SN12C > 100 µM | SK-MEL-28 > 100 µM | TK-10 91 µM

O=c1c2c(nc3[nH]ccn13)CCC2
inactive: EKVX > 10 µM | MCF7 > 10 µM | MDA-N > 10 µM | U-251 > 10 µM | IGROV-1 > 10 µM | RXF 393 > 10 µM | SNB-75 > 10 µM | M14 > 10 µM | SK-OV-3 > 10 µM | KM12 > 10 µM | OVCAR-3 > 10 µM | DU-145 > 10 µM | SW-620 > 10 µM | OVCAR-5 > 10 µM | T47D > 10 µM | SN12C > 10 µM | SK-MEL-28 > 10 µM | TK-10 > 10 µM
